Laboratory results: patent publication US12576094B2, “Combination cannabinoid-phenylethanoid formulation for treatment of inflammation and methods related thereto” (Canole LLC, priority 2019, dated 2026)

Assays:
C-28/I2 chondrocytes = experiment: toxicity screen to establish maximum tolerable concentrations in chondrocytes
From the text: A clonal derivative of ATCC-certified normal chondrocytes was used for a study to determine cytokine expression. The parent line was originally derived from costal cartilage of an adolescent person. The cell line used is C-28/I2 accession number CVCL_0187. The cells were immortalized via retroviral vector-mediated SV40 Large T antigen expression. Cells were confirmed negative for mycoplasma contamination and genotyped by STR analysis to verify cell identity. This cell line is widely used as a model for studying normal and pathological cartilage repair mechanisms and inflammation.
The cells were cultured at 37° C. with 5% CO2, DMEM/F12 media supplemented with 10% heat-inactivated fetal bovine serum. Antimicrobials were not added to the media. Cells were maintained between 40 and 80% confluency to avoid terminal differentiation. Cells used for the experiments had been passaged no more than ten times prior to each experiment.
A series of pilot studies were performed to design the final full-scale experiment. First, a toxicity screen for each test compound was performed to establish maximum tolerable concentrations in this model system. Second, assays were run to establish the optimal means of inducing a pro-inflammatory state in the cell culture system. Third, conditions were tested to set the most favorable dilution scheme in order to maintain samples within the linear range of detection for each analyte. To establish the test concentrations for each test compound, chondrocytes were treated with a serial dilution of each compound, for 24 and 48 hours under serum free conditions. Oleocanthal or CBD were tested at two-fold dilutions down from a concentration of 50 micromolar (μM).

[1] = system: IL-13 production by chondrocytes (C-28/I2); experiment: cytokine array of conditioned media from IL1β-stimulated chondrocytes: IL-13; type: cell-based, human; conditions: Moderate level (2.00 μM) of CBD alone, IL1β 10 ng/ml, 24 hours, no serum, FIG. 2
From the text: Antimicrobials were not added to the media.
Three wells were utilized per sample condition.

Compound	maximum tolerable concentration (C-28/I2 chondrocytes; human, 24 h)	maximum tolerable concentration (C-28/I2 chondrocytes; chondrocytes, 24 hours post-treatment, serum free)	generated amount of IL13 [1]
O=C(O)c1cccnc1 [niacin, niacin/nicotinic acid]	1000 µM	–	–
C/C=C(/C=O)[C@@H](CC=O)CC(=O)OCCc1ccc(O)cc1 [oleocanthal]	6 µM	–	–
C=C(C)[C@@H]1CCC(C)=C[C@H]1c1c(O)cc(CCCCC)cc1O [CBD, cannabidiol]	–	6 µM	greatly reduced
